Data on two compounds can be found in article PMC11527646, “Pharmacological blockade of the mast cell MRGPRX2 receptor supports investigation of its relevance in skin disorders” (Frontiers in Immunology, 2024).

Molecules are shown by their SMILES. Several values for one entry are separate records, joined by “and”; a condition that tells them apart may be missing. Identical values can stand only once. Like-named read-outs stand apart in the source and are kept apart here.

In one series the test system is rat MrgB3. The series is described as follows: Calcium mobilization in BacMam-transduced U2OS cells. The class given is cell-based. How it is done:
(§1) Cell culture reagents were purchased from Thermo Fisher Scientific unless otherwise stated. The LAD2 human mast cell line was in-licensed from National Institutes of Health (NIH) and routinely cultured in StemPro™-34 SFM with nutrient supplement, 1× GlutaMax™, and recombinant human SCF (100 ng/mL). HEK293-MRGPRX2/Gα15 cells were cultured in DMEM containing 10% FBS. The parental U2OS cells were culture in DMEM/F-12 containing 10% FBS. BacMam virus containing human MRGPRX2 gene or animal orthologs [mouse Mrgprb2 (Gene ID: 243979), rat Mrgprb3 (Gene ID: 691194), dog MRGPRX2 (Gene ID: 102125889), cynomolgus monkey MRGPRX2 (Gene ID: 692078), and rhesus monkey MRGPRX2] were used to transduce U2OS cells for transient expression.
(§2) Supplemental Table 1: Compound A and Compound B are human MRGPRX2 selective antagonists. Antagonist and agonist activities of the two compounds were determined in calcium mobilization assays for human MRGPRX2 and its animal orthologs from various species. The activities were measured in […] (Molecular Devices) instrument using U2OS cells transduced with BacMam virus for transient expression of the relevant receptors. Data are presented as mean ± SEM when applicable.
(§3) Compound A and Compound B up to the highest concentration (100 µM) tested. In the antagonist […]
(§4) Compound A and B, respectively. […]
(§5) Taking together, […]

The target in another series is T1, mouse MrgB2 (Mus musculus, UniProt Q3KNA1).
T1 construct: expressed in transfected cells; host or cells: U2OS transduced with BacMam virus
The series is described as above. It counts as cell-based. How it is done: as §1, §2, §3, §4, §5

For series [1], the system named is dog MRGPRX2 (beagle & boxer). Described as above. The class given is cell-based. How it is done: as §1, §2, §3, §4, §5
Another series addresses T2, V1A receptor (AVPR1A) (Homo sapiens, UniProt P37288).
T2 construct: expressed in transfected cells
The series can be described thus: GPCR selectivity cellular assay. It counts as cell-based. The settings on record: Antagonism; read-out: Antagonist Activity (IC50). How it is done: (§6) tagonists, with little activity detected on other GPCRs. Antagonist and/or agonist activities of the two compounds were determined in cellular assays for 20 human G-protein coupled receptors (GPCR) beside MRGPRX2. Recombinant over-expression systems in mammalian cells were used for all assays listed in this table. […]
(§7) reported as ‘>’ the highest compound concentration allowed in that assay.
(§8) GPCR Target Name Gene symbol Mode of Activity Compound-A Compound-B […]
(§9) Agonist Activity (EC50 ) or Antagonist Activity (IC50 ), nM […]

Another series addresses k-Receptor (OPRK1) (Homo sapiens, UniProt P41145). The series is described as follows: GPCR selectivity cellular assay. It counts as cell-based. How it is done: as §6, §7, §8, §9
The target in another series is T3, M1 receptor (CHRM1) (Homo sapiens, UniProt P11229).
T3 construct: expressed in transfected cells
T3 sequence (P11229 1-460): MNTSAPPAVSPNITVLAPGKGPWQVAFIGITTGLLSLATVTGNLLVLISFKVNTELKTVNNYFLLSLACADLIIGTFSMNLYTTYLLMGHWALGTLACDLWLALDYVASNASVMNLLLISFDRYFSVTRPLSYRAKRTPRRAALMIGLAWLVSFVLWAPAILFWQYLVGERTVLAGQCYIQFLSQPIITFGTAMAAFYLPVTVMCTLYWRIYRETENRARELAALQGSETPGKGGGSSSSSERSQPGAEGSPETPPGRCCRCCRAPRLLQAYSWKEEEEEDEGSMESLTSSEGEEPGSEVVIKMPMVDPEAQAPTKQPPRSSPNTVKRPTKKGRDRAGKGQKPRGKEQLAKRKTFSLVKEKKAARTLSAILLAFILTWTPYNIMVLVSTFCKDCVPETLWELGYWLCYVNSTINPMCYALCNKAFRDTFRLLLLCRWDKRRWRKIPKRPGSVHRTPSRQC
The series is described as follows: GPCR selectivity cellular assay. The class given is cell-based. Conditions: for EC50: Agonism, read-out: Agonist Activity (EC50); for IC50: Antagonism, read-out: Antagonist Activity (IC50). How it is done: as §6, §7, §8, §9

The next series has as its target 5-HT2A receptor (HTR2A) (Homo sapiens, UniProt P28223). The series is described as follows: GPCR selectivity cellular assay. It counts as cell-based. How it is done: as §6, §7, §8, §9
The next series addresses 5-HT2B receptor (HTR2B) (Homo sapiens, UniProt P41595). The series is described as follows: GPCR selectivity cellular assay. It counts as cell-based. Conditions: Agonism; read-out: Agonist Activity (EC50). How it is done: as §6, §7, §8, §9
A further series has as its target T4, A2A receptor (ADORA2A) (Homo sapiens, UniProt P29274).
T4 construct: expressed in transfected cells
The series is described as follows: GPCR selectivity cellular assay. Conditions: Agonism; read-out: Agonist Activity (EC50). It counts as cell-based.

Series [2] can be described thus: Blood-free concentration at end of itch observation period. The class given is in vivo, mouse. The settings on record: 3 mg/kg PO, average ± SD. How it is done: Figure 6 Oral treatment with the potent and selective MRGPRX2 antagonist, Compound B (3 mg/kg), blocks Cpd 48/80–induced itch response using human MRGPRX2 knock-in mice. […] Average ± SD blood-free concentration of antagonist measured at end of “itch” observation period was 19 ± 16 nM Compound B.
This study provides pharmacological evidence that MRGPRX2 is solely responsible for mediating an SP response in a human tissue, in this instance, skin. Finally, human MRGPRX2 knock-in mice were used to provide initial proof of target engagement of MRGPRX2 antagonists in the skin using an established behavioral scratching model.

The mark [3] stands for this setting: Agonism, read-out: Agonist Activity (EC50).

Sequence of 5-HT2A receptor (HTR2A) (P28223 whole entry): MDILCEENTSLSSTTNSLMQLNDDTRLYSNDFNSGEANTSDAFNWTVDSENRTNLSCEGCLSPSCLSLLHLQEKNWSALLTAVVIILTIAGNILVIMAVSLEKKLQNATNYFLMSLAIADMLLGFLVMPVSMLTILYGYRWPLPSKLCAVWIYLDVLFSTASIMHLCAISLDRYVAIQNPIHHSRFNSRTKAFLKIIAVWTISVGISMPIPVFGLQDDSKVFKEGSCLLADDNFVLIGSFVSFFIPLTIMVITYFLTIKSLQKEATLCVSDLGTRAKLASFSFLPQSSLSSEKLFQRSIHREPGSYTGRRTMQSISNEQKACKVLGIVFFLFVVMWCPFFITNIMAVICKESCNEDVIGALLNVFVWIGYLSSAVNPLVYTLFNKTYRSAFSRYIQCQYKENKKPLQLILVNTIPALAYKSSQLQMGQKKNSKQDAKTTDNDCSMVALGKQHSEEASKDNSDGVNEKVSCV
Sequence of 5-HT2B receptor (HTR2B) (P41595 whole entry): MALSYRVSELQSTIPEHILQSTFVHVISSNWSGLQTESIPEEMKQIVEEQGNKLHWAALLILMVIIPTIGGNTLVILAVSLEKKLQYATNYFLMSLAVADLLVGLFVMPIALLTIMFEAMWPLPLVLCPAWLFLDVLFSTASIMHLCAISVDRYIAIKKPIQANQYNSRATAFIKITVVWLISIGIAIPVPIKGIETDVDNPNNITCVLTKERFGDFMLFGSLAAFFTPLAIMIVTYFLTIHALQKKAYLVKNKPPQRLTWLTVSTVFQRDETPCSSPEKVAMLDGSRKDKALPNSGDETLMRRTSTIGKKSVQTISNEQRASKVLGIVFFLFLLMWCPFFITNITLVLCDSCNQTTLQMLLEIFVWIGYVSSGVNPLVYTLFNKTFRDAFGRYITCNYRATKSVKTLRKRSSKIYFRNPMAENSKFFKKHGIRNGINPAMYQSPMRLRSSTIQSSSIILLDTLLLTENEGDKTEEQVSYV
T2 sequence (P37288 whole entry): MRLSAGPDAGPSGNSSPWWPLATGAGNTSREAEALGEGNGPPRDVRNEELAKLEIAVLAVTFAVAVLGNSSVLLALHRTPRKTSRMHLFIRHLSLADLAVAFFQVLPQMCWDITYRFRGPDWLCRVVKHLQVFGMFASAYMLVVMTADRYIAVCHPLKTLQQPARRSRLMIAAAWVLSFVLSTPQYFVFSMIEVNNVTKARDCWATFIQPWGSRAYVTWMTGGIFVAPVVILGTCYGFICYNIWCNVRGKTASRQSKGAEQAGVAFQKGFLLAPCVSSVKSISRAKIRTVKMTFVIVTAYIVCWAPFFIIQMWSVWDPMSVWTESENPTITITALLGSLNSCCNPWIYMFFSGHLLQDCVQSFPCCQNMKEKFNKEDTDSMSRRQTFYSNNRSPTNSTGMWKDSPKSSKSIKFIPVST
T4 sequence (P29274 whole entry): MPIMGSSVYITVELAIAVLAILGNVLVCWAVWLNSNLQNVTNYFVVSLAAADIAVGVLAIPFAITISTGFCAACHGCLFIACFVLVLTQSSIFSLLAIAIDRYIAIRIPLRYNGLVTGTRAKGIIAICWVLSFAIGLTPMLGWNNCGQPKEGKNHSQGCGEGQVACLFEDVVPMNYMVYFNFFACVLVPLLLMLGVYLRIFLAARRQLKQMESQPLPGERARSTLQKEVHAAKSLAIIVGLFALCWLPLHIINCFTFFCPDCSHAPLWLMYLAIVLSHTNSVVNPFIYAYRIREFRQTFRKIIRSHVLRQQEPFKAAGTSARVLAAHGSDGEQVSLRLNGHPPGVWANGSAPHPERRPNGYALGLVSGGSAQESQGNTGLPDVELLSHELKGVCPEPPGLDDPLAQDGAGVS
Sequence of k-Receptor (OPRK1) (P41145 whole entry): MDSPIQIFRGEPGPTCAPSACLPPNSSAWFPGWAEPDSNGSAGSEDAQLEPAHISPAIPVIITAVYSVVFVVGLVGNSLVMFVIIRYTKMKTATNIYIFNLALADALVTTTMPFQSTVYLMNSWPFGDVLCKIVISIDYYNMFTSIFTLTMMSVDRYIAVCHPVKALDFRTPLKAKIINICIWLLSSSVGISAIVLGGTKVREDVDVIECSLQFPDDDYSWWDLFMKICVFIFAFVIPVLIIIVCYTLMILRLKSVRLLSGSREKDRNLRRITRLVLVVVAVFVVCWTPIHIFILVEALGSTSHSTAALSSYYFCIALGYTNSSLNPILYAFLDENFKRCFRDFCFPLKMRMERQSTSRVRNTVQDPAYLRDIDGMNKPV
T1 sequence (Q3KNA1 whole entry): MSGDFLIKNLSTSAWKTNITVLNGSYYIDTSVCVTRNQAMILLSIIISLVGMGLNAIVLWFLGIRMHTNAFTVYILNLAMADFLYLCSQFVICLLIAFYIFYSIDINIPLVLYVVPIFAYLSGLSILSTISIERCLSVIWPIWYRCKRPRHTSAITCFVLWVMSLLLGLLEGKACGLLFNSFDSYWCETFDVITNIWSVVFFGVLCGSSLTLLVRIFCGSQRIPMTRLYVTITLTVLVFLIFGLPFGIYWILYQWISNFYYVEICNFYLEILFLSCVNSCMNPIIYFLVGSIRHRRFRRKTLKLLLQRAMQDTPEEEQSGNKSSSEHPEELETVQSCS

As to `CC1(C)C(C(=O)Nc2ccccn2)C1(C)C` [Compound A], the “Agonist and antagonist activity” value (in the series with rat MrgB3; on mouse MrgB2; in [1]) was “No agonist nor antagonist activity” in each case. Further, the figures for the IC50 at V1A receptor (AVPR1A), at M1 receptor (CHRM1) and at 5-HT2A receptor (HTR2A) were above 50 µM, above 50 µM and 41.4 µM, respectively. The EC50 at k-Receptor (OPRK1) is above 100 µM; on M1 receptor (CHRM1), above 50 µM; on 5-HT2A receptor (HTR2A), above 100 µM; at 5-HT2B receptor (HTR2B), 27.1 µM; at A2A receptor (ADORA2A), above 100 µM.

Consider `C[C@@H](C(=O)Nc1cnc(Oc2ccc(F)cc2F)cn1)N1CCC(F)(F)[C@@H](c2cc[n+]([O-])cc2)C1` [Compound B], for which the “Blood-free concentration of antagonist” value in series [2] is 19 ± 16 nM and 19 nM. In addition, the “Agonist and antagonist activity” value (in the series on rat MrgB3; at mouse MrgB2; in series [1]) was “No agonist nor antagonist activity” throughout. Moreover, the IC50 on V1A receptor (AVPR1A) was above 50 µM; on M1 receptor (CHRM1), above 50 µM; on 5-HT2A receptor (HTR2A) (Antagonism, read-out: Antagonist Activity (IC50)) it was above 100 µM. Further, the EC50 on k-Receptor (OPRK1) (setting [3]) is above 100 µM; on M1 receptor (CHRM1), above 50 µM; at 5-HT2A receptor (HTR2A) (setting [3]) it was above 100 µM; on 5-HT2B receptor (HTR2B), above 100 µM; on A2A receptor (ADORA2A) it was above 100 µM.
